Assay: Phase II single-dose oral pharmacokinetic study of urolithin A in a maltodextrin formulation
Format: in vivo
Conditions: human, n = 12
Experimental: A phase II clinical study was carried out to determine the bioavailability of urolithin A when dosed in a formulation containing maltodextrin to human subjects.
In particular, the pharmacokinetic parameters of the compound were investigated in an open-label, parallel-arm, randomized, single-period, single-dose pharmacokinetic study. Subject enrolled where healthy volunteers, both males and females aged between 18 and 45 years. Formulation details and clinical study procedures are described in the method section below.
Subjects were administered orally as a single dose with a maltodextrin formulation (Table 2). The formulations was administered to deliver a total dose of 500 mg Urolithin A per dosing. Plasma samples were collected pre-dosing and at sequential time points after dosing, i.e. 1 hr, 4 hrs, 6 hrs, 8 hrs, 12 hrs, 24 hrs, 72 hrs. Plasma levels of parent Urolithin A were determined and expressed as pg/ml.
A total of 24 participants were enrolled in the study (12 subject per group). Subjects were healthy male and female participants. Subjects were selected after a screening to meet all the following criteria aged between 18 and 45 years; with Body Mass Index (BMI) between 18.50-30.00 kg/m2;
Maltodextrin formulation (urolithin A Powder with Maltodextrin): half a scoop (1.5 g) of powder, containing 500 mg of Urolithin A. Composition is described in Table 2.
Mode of Administration: Participants take the powder orally on an empty stomach in a sitting position, after an overnight fast. The powder was mixed with 240±2 mL of milk, shaken well, and consumed. It was ensured that all liquid was swallowed without leaving any residue behind or retaining in the mouth.
This study was an open-label, parallel-arm, single-period, single-dose, randomized study wherein each participant received a single dose of allocated investigational product administered orally to the trial participants in a sitting posture. The formulation was administered with about 240 mL of whole milk (3% fat content) in a sitting posture.
PK blood samples were collected at pre-dose and post-dose at 1 hr, 4 hrs, 6 hrs, 8 hrs, 12 hrs, 24 hrs, 72 hrs. PK blood samples were collected by direct vein puncture or using a venous cannula. When multiple blood sample collection were scheduled on the same day from the same participant, at the discretion of the investigator, a venous cannula was inserted and blood samples collected from the cannula to avoid multiple pricks. For the same, an intravenous (IV) cannula was placed in a forearm vein or dorsal aspect of the hand of the participants. Intravenous indwelling cannula kept in situ as long as required by injecting 0.3 mL of normal saline or heparinized saline (to prevent the cannula from clogging). Because the cannula contains stagnant blood and normal or heparinized saline, it was […] before collection of the pharmacokinetic blood sample, for the same, 0.3 mL (or as appropriate depending upon the size and length of the cannula) of normal saline/heparinized saline diluted blood was discarded prior to collection of the next PK sample. […] All PK blood samples was collected or transferred (in case if collected in a syringe) in K2-EDTA blood collection tubes.
After collection, the PK blood samples were centrifuged at 4000 RPM at 4° C.±2° C. for 10 minutes. The plasma was separated and transferred to labeled polypropylene tubes and stored in a freezer at −80° C.±10° C. Pharmacokinetics parameters of Urolithin A were calculated from the concentration Vs. time data using Phoenix@WinNonlin® professional software (Version 8.1.1 or higher) (Certara, Princeton, New Jersey, USA).

Urolithin concentrations in blood, Mean (Pre-dose, plasma parent Urolithin A): 1.00 pg/mL
concentration at 1 h (both sexes, 1 h after single oral 500 mg Urolithin A in maltodextrin formulation, plasma, read-out: Urolithin concentrations in blood, Mean): 0.551 ng/mL
concentration at 4 h (both sexes, 4 h after single oral 500 mg Urolithin A in maltodextrin formulation, plasma, read-out: Urolithin concentrations in blood, Mean): 1.07 ng/mL
concentration at 6 h (both sexes, 6 h after single oral 500 mg Urolithin A in maltodextrin formulation, plasma, read-out: Urolithin concentrations in blood, Mean): 1.4 ng/mL
concentration at 8 h (both sexes, 8 h after single oral 500 mg Urolithin A in maltodextrin formulation, plasma, read-out: Urolithin concentrations in blood, Mean): 0.775 ng/mL
concentration at 12 h (both sexes, 12 h after single oral 500 mg Urolithin A in maltodextrin formulation, plasma, read-out: Urolithin concentrations in blood, Mean): 0.72 ng/mL
concentration at 24 h (both sexes, 24 h after single oral 500 mg Urolithin A in maltodextrin formulation, plasma, read-out: Urolithin concentrations in blood, Mean): 0.404 ng/mL
concentration at 72 h (both sexes, 72 h after single oral 500 mg Urolithin A in maltodextrin formulation, plasma, read-out: Urolithin concentrations in blood, Mean): 0.167 ng/mL
SMILES: O=c1oc2cc(O)ccc2c2ccc(O)cc12 [Urolithin A]
